Reference: patent publication US20230329245A1, “COMPOSITIONS AND METHODS OF USE THEREOF” (Curie Co. Inc., priority 2020, published 2023)
Values joined by “and” are separate entries in the source; they are usually repeats but may differ in a detail not shown here. Equal entries are not always repeated. Where two headings read alike, the source gives them in different places.

Experiments:
Type in all cases: cell-based
E. coli ATCC 8739 [1] = assay: Growth inhibition of E. coli culture in LB (OD600 / BacTiter-Glo); details: for growth inhibition / growth inhibition in the presence of 400 μg/mL Tgase SEQ ID NO: 6 / inhibition at 500 µg/mL / inhibition at 3000 µg/mL: E. coli ATCC 8739; for inhibition at 500 µg/mL / inhibition at 3000 µg/mL: Escherichia coli, ATCC8739
Method: (§1) For MIC determination of bacterial cultures, E. coli ATCC 8739, DH5-alpha, DH10-beta, and B. subtilis BGSC 1A1276 was grown overnight (16-18 hours) in LB broth at 37° C. The following day, the cell density of the saturated cultures was calculated using OD600 and cultures were diluted to 10^4 to 10^6 CFU/mL in sterile LB media to generate the inoculum, and 90 μL of the inoculum was combined with 10 μL of serially diluted Tgase SEQ ID NO:1 at a range of 0.0001-0.01 weight percent in the presence or absence of 0.003% lysozyme (100-fold lower than the effective concentration). Growth curves were measured by OD600 on a BioTek® Synergy Plate Reader. Optionally, the following day, a cell viability assay such as BacTiter-Glo™ (Promega®) following manufacturer's protocols) could be used to assess cell viability. A decrease in OD600 or luminescence indicated a decrease in cell viability. Results are presented as a percent reduction in cell count relative to an untreated culture. All test conditions were performed in triplicate.
E. coli ATCC 8739 was grown overnight in LB broth at 37° C. The following day, the cell density of the saturated cultures was calculated using OD600 and cultures were diluted to 10^4 to 10^6 CFU/mL in sterile LB media to generate the inoculum, and 90 μL of the inoculum was combined with 10 μL of serially diluted Tgase SEQ ID NO:6 at a range of 0.001-0.1 weight percent in the presence or absence of chemical preservatives at concentrations above and below the calculated MIC value. A single concentration (at the MIC) of the chemical preservative and static concentrations of Tgase SEQ ID NO:6 (400 μg/mL, 0.04% w/v) are presented in Table 8 as representative examples. Growth curves were measured by OD600 on a BioTek® Synergy Plate Reader and a cell viability assay (BacTiter-Glo™, Promega®, following manufacturer's protocols) was used to assess cell viability. A decrease in OD600 or luminescence indicated a decrease in cell viability. Results are presented as a percent reduction in cell count relative to an untreated culture. […]

P. aeruginosa ATCC 9027 = assay: MIC determination, P. aeruginosa; details: CAMHB pH 7.3, 37° C., 18 to 20 hours, duplicate
Method: (§2) A variant form of Streptomyces mobaraensis transglutaminase having the amino acid sequence depicted in SEQ ID NO:6 was prepared by literature methods with a hexa-his-tag to aid in purification (Javitt, et al. (2017) BMC Biotechnol. 17:23). The cells were grown in shake flasks, lysed by homogenization, and the Tgase variant (SEQ ID NO:6) was isolated from the cell debris by centrifugation. The resulting semi-purified enzyme (clarified lysate) were compared on an SDS-PAGE gel, by spectroscopy, and activity for concentration of active enzyme. The Tgase variant (SEQ ID NO:6) was further purified by affinity column on a Ni-IMAC resin prior to MIC assay. Tgase activity was measured in the examples herein using a colorimetric hydroxamate activity assay (Folk and Cole (1965) J Biol Chemistry 240(7):2951-2960). The enzyme was diluted to a working stock concentration of 2 mg/mL in CAMHB or RPMI media (bacterial or fungal media). This was then 2-fold serial diluted ten times in the appropriate media in a 96-well master plate to generate 2× starting concentrations for MIC testing.
(§3) Strains were acquired from the American Type Culture Collection (ATCC) (Manassas, VA) and maintained as −80° C. frozen glycerol stocks: S. aureus ATCC 6538, E. coli ATCC 8739, P. aeruginosa ATCC 9027, C. albicans ATCC 10231, and A. brasiliensis ATCC 16404. B. subtilis BGSC 1A1276 was purchased from the Bacillus Genetic Stock Center (BGSC) (Columbus, OH) and maintained as −80° C. frozen glycerol stock. Cation-adjusted Mueller-Hinton broth (CAMHB) at pH 7.3 was used for testing with bacterial species (unless otherwise noted), while RPMI 1640 media buffered with 0.165 M MOPS at pH 7.0 was used for testing with all fungal species.
For MIC determination, bacterial strains (S. aureus ATCC 6538, E. coli ATCC 8739, P. aeruginosa ATCC 9027) were grown overnight on Tryptic Soy Agar (TSA) plates at 37° C. A few colonies of each strain were collected with a sterile swab and used to make a McFarland 0.5 standard solution (approximately 1×10^8 CFU/mL) in sterile PBS. […]

E. coli ATCC 8739 [2] = assay: MIC determination, E. coli
Method: as §2, §3
For MIC determination, bacterial strains (S. aureus ATCC 6538, E. coli ATCC 8739, P. aeruginosa ATCC 9027) were grown overnight on Tryptic Soy Agar (TSA) plates at 37° C. A few colonies of each strain were collected with a sterile swab and used to make a McFarland 0.5 standard solution (approximately 1×10^8 CFU/mL) in sterile PBS. The McFarland solution was then diluted 1:100 in CAMHB to generate the inoculum, and 50 μL of this inoculum was combined with 50 μL of the 2× test article in a 96-well plate for a final concentration of 1×. All test conditions were performed in duplicate. The bacterial-strain MIC 96-well plates were incubated at 37° C. for 18 to 20 hours. MIC is defined as the lowest concentration of a compound in which no visible growth is observed.

C. albicans ATCC 10231 [3] = assay: MIC determination, C. albicans; details: RPMI 1640 pH 7.0, 37° C., 24 to 48 hours, duplicate
Method: as §2, with “testing. […]” for “testing.”
(§4) C. albicans MIC 96-well plate was incubated for 37° C. for 24 to 48 hours. […] After incubation, all 96-well plates were examined visually and on a spectrophotometer at absorbance OD650. […]

S. aureus ATCC 6538 = assay: MIC determination, S. aureus; details: CAMHB pH 7.3, 37° C., 18 to 20 hours, duplicate
Method: as §2
Strains were acquired from the American Type Culture Collection (ATCC) (Manassas, VA) and maintained as −80° C. frozen glycerol stocks: S. aureus ATCC 6538, E. coli ATCC 8739, P. aeruginosa ATCC 9027, C. albicans ATCC 10231, and A. brasiliensis ATCC 16404. […]

[4] = tested on: A. brasiliensis ATCC 16404; assay: MIC determination, A. brasiliensis; details: RPMI 1640 pH 7.0, 25° C., up to 7 days, duplicate
Method: as §2, with “testing. […]” for “testing.”
as §4

B. subtilis BGSC 1A1276 = assay: Growth reduction of B. subtilis culture (OD600 / BacTiter-Glo)
Method: as §1
(§5) Yeast or bacterial starter cultures were grown as described previously. Tgase (SEQ ID NO:6) was added to each culture at 0.001-1 weight percent. The cultures were grown overnight at 30° C.-37° C. and growth curves were measured by a BioTek® Synergy Plate Reader.

C. albicans ATCC 10231 [5] = assay: Growth reduction of C. albicans culture (OD600 / BacTiter-Glo)
Method: For MIC determination of yeast cultures, C. albicans ATCC 10231 was grown overnight (24 hours) in YPD media at 30° C. The following day, the cell density of the saturated cultures was calculated using OD600 and cultures were diluted to 10^4 to 10^6 CFU/mL in sterile YPD media to generate the inoculum, and 90 μL of the inoculum was combined with 10 μL of serially diluted Tgase SEQ ID NO:1 at a range of 0.0001-0.01 weight percent. The cultures were grown overnight at 30° C. and growth curves were measured by OD600 on a BioTek® Synergy Plate Reader. Optionally, the following day, a cell viability assay such as BacTiter-Glo™ (Promega®) following manufacturer's protocols) could be used to assess cell viability. A decrease in OD600 or luminescence indicated a decrease in cell viability. Results are presented as a percent reduction in cell count relative to an untreated culture. All test conditions were performed in triplicate.
as §5

[6] = CAMHB pH 7.3, 37° C., 18 to 20 hours, duplicate
[7] = Escherichia coli, ATCC8739, read-out: Concentration (MIC values; single concentration at the MIC of the chemical preservative)

Benzalkonium chloride
growth inhibition (E. coli ATCC 8739 [1]; 16 μg/mL): 99.7% | growth inhibition in the presence of 400 μg/mL Tgase SEQ ID NO: 6 (E. coli ATCC 8739 [1]; 16 μg/mL preservative + 400 μg/mL Tgase SEQ ID NO: 6): 99.94% | MIC (P. aeruginosa ATCC 9027): 62.5 µg/mL and 31.25 µg/mL | Concentration (MIC values; single concentration at the MIC of the chemical preservative) (E. coli ATCC 8739 [2]): 16 µg/mL | MIC (E. coli ATCC 8739 [2]; [6]): 15.63 µg/mL | MIC (C. albicans ATCC 10231 [3]): 3.91 µg/mL

Cn1sccc1=O [MIT, Methylisothiazolinone]
growth inhibition (E. coli ATCC 8739 [1]; 150 μg/mL): 98.7% | growth inhibition in the presence of 400 μg/mL Tgase SEQ ID NO: 6 (E. coli ATCC 8739 [1]; 150 μg/mL preservative + 400 μg/mL Tgase SEQ ID NO: 6): 99.8% | Concentration (MIC values; single concentration at the MIC of the chemical preservative) (E. coli ATCC 8739 [2]): 150 µg/mL

O=C([O-])c1ccccc1.[Na+] [Sodium benzoate, sodium benzoate]
growth inhibition (E. coli ATCC 8739 [1]; 10,000 μg/mL): 99.85% | growth inhibition in the presence of 400 μg/mL Tgase SEQ ID NO: 6 (E. coli ATCC 8739 [1]; 10,000 μg/mL preservative + 400 μg/mL Tgase SEQ ID NO: 6): 99.97% | MIC (S. aureus ATCC 6538): 10,000 μg/mL | MIC (P. aeruginosa ATCC 9027): 10,000 μg/mL | Concentration (MIC values; single concentration at the MIC of the chemical preservative) (E. coli ATCC 8739 [2]): 10,000 μg/mL | MIC (E. coli ATCC 8739 [2]; [6]): 10,000 μg/mL | MIC (C. albicans ATCC 10231 [3]): >20,000 μg/mL | MIC [4]: 2,500 μg/mL and 1,250 μg/mL

CCCCCCC(O)CO (centres unmarked) [1,2-octandiol]
inhibition at 500 µg/mL (E. coli ATCC 8739 [1]; 500 μg/mL preservative + 400 μg/mL Tgase SEQ ID NO: 6, read-out: growth inhibition in the presence of 400 μg/mL Tgase SEQ ID NO: 6): 99.3% | inhibition at 500 µg/mL (E. coli ATCC 8739 [1]; 500 μg/mL, read-out: growth inhibition): 97.8% | MIC (E. coli ATCC 8739 [2]; [7]): 500 µg/mL

CCCCC(O)CO (centres unmarked) [1,2-hexandiol]
inhibition at 3000 µg/mL (E. coli ATCC 8739 [1]; 3,000 μg/mL preservative + 400 μg/mL Tgase SEQ ID NO: 6, read-out: growth inhibition in the presence of 400 μg/mL Tgase SEQ ID NO: 6): 99.5% | inhibition at 3000 µg/mL (E. coli ATCC 8739 [1]; 3,000 μg/mL, read-out: growth inhibition): 97.9% | MIC (E. coli ATCC 8739 [2]; [7]): 3000 µg/mL

B1: Tgase (SEQ ID NO: 1): wild-type Streptomyces mobaraensis transglutaminase, mature form, amino acid sequence SEQ ID NO:1 (protein, listed as Streptomyces mobaraensis)
chain: DSDDRVTPPAEPLDRMPDPYRPSYGRAETVVNNYIRKWQQVYSHRDGRKQQMTEEQREWLSYGCVGVTWVNSGQYPTNRLAFASFDEDRFKNELKNGRPRSGETRAEFEGRVAKESFDEEKGFQRAREVASVMNRALENAHDESAYLDNLKKELANGNDALRNEDARSPFYSALRNTPSFKERNGGNHDPSRMKAVIYSKHFWSGQDRSSSADKRKYGDPDAFRPAPGTGLVDMSRDRNIPRSPTSPGEGFVNFDYGWFGAQTEADADKTVWTHGNHYHAPNGSLGAMHVYESKFRNWSEGYSDFDRGAYVITFIPKSWNTAPDKVKQGWP
Fold improvement in enzyme efficacy (B. subtilis BGSC 1A1276; Tgase (SEQ ID NO: 1) alone = 1): 1 | growth inhibition (in words) (B. subtilis BGSC 1A1276; Tgase alone): partially inhibited | Percent Growth Reduction (B. subtilis BGSC 1A1276; enzyme concentration 960 ug/mL): 99.17% | growth inhibition (in words) (B. subtilis BGSC 1A1276; upon adding a cell membrane disruptor, lysozyme): Full inhibition | Fold improvement in enzyme efficacy (C. albicans ATCC 10231 [5]; C. albicans ATCC 10231, Tgase (SEQ ID NO: 1) = 1): 1 | Percent Growth Reduction (C. albicans ATCC 10231 [5]; C. albicans ATCC 10231, enzyme concentration 800 ug/mL): 83.11% | growth inhibition (in words) (C. albicans ATCC 10231 [5]; C. albicans, Tgase alone): partially inhibited | growth inhibition (E. coli ATCC 8739 [1]; 960 μg/mL): 0.0% | antimicrobial activity (E. coli ATCC 8739 [1]; gram negative E. coli ATCC 8739, DH5-alpha and DH10-beta, under the concentrations evaluated): little or no detectable antimicrobial activity
